Source: PMC6257465, “Synthesis of N-(Methoxycarbonylthienylmethyl)thioureas and Evaluation of Their Interaction with Inducible and Neuronal Nitric Oxide Synthase” (Molecules, 2010)

Molecular target: T1, recombinant human iNOS (hiNOS) (Homo sapiens, UniProt P35228)
T1 construct: gene NOS2; human iNOS cDNA in pEFIRES-P, overexpressed in HT1080 fibrosarcoma cells; post-mitochondrial supernatant, arginine removed with Dowex-50W; homodimer
Test: L-[U-14C]-arginine to L-[U-14C]-citrulline conversion assay
Type: biochemical
Conditions: 100 µM, test compound added simultaneously with L-[U-14C]-arginine
Excerpt: L-[U-14C]-arginine to L-[U-14C]-citrulline conversion assay on recombinant human iNOS (hiNOS)

T1 sequence (P35228 whole entry): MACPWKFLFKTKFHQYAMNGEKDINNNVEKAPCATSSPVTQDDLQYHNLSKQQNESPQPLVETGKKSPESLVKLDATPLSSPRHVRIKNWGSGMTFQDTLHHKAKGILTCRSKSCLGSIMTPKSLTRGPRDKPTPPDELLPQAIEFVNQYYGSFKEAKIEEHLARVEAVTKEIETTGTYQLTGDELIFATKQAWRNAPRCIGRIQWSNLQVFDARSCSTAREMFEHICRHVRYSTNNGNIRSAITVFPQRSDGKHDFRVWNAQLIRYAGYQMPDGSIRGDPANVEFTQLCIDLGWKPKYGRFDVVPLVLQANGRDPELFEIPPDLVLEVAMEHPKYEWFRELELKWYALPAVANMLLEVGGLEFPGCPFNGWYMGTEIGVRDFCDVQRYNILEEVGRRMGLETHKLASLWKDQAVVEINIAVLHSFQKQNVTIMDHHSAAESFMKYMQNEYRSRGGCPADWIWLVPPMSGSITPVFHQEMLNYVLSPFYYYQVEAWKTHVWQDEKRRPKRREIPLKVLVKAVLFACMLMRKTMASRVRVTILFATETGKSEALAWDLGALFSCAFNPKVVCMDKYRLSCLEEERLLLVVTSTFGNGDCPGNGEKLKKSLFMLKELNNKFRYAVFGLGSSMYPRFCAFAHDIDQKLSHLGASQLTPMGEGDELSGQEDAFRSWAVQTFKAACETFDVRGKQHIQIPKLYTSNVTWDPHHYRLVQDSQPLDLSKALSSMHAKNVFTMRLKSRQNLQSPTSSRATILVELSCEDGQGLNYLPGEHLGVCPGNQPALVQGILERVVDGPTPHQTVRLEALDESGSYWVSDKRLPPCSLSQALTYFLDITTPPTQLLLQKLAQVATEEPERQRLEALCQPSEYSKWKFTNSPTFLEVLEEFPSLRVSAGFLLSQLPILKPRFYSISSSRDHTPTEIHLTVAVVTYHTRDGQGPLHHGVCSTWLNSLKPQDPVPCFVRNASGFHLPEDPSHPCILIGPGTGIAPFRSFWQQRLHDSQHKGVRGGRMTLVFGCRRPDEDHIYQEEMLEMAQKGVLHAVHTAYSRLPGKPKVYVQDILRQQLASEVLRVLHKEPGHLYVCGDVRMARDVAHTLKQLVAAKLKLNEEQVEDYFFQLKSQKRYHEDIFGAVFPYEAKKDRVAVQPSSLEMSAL

Structure (SMILES)	% Stimulation of hiNOS activity ^a / t = 0 min ^b
COC(=O)c1cc(CNC(N)=S)cs1 [compound 25, Methyl 4-(thioureidomethyl)thiophene-2-carboxylate]	+37 ± 27%
COC(=O)c1ccc(CNC(N)=S)s1 [compound 13, Methyl 5-(thioureidomethyl)thiophene-2-carboxylate]	+62 ± 2%
